Results: patent US8722910B2, “Diyne compositions” (Evolva AG, priority 2009, dated 2014)
In brackets after ≈: the same amount, converted by molar mass. Like-named read-outs stand apart in the source and are kept apart here.

Legend:
[1] = system: C. glabrata ATCC-90030; assay: MIC versus reference Candida strains (broth micro dilution); parameters: MICs (100% inhibition): unit not given beside the values; conditions: for MIC: Nakaseomyces glabratus
[2] = system: C. albicans ATCC-24433; assay: as above; parameters: MICs (100% inhibition): unit not given beside the values; conditions: for MIC: Candida albicans
[3] = system: Candida glabrata; assay: Growth inhibition alone and combined with Amphotericin B (visual); assay type: cell-based
Protocol: (§1) Potassium (Z)-14-(furan-2-yl)tetradeca-9-en-11,13-diynoate was tested against Aspergillus fumigatus and various Candida species alone to determine antifungal activity and in various combinations with Amphotericin B to determine if any synergistic or antagonistic interactions may occur.
(§2) Amphotericin B and potassium (Z)-14-(furan-2-yl)tetradeca-9-en-11,13-diynoate were added to an in vitro culture of different fungi in various concentrations and the culture was visually inspected. If there is inhibition of growth the culture will remain optically clear, whereas growth results in a hazy culture. The results are shown in FIG. 5, where 0 means optically clear (i.e. no growth), 1 means slightly hazy, 2 means prominent decrease (at least 50%) in visible growth, 3 means slight reduction in visible growth and 4 means no reduction in visible growth.

[4] = system: Candida albicans; assay: as above; assay type: cell-based; conditions: 2 μg/ml and lower
Protocol: as §1, §2

[5] = system: Candida parapsilosis; assay: as above; assay type: cell-based; conditions: 2 μg/ml and lower
Protocol: as §1, §2

[6] = system: Aspergillus fumigatus; assay: as above; assay type: cell-based
Protocol: as §1, §2

[7] = system: OLE1; assay: OLE1 expression by real time PCR; assay type: cell-based, C. albicans; conditions: 250 ng/ml; 120 min; vs drug free control
Protocol: Numbers indicate time intervals in minutes. Expression values are normalized to TUB1 and given as multiples of OLE1 expression at 10 minutes in ethanol.
Similarly, the expression of OLE1 in C. albicans was investigated in response to compound IV″. In the presence of 250 ng/ml Compound IV, OLE1 transcript levels were increased 4-fold after 120 min incubation time compared to the drug free control. […] Expression values are normalised to TUB1 and given as multiples of OLE1 expression at 10 minutes in ethanol.

[8] = system: C. albicans ATCC-90028; assay: MIC versus reference Candida strains (broth micro dilution); parameters: MICs (100% inhibition): unit not given beside the values; conditions: for MIC: Candida albicans
[9] = system: C. parapsilosis ATCC-22019; assay: as above; parameters: MICs (100% inhibition): unit not given beside the values; conditions: for MIC: Lodderomyces parapsilosis
[10] = system: C. tropicalis ATCC-750; assay: as above; parameters: MICs (100% inhibition): unit not given beside the values; conditions: for MIC: Candida tropicalis
[11] = system: C. parapsilosis ATCC-90018; assay: as above; parameters: MICs (100% inhibition): unit not given beside the values; conditions: for MIC: Lodderomyces parapsilosis
[12] = system: C. krusei ATCC-6258; assay: as above; parameters: MICs (100% inhibition): unit not given beside the values; conditions: for MIC: Pichia kudriavzevii
[13] = system: C. albicans SC5314; assay: as above; assay type: cell-based
[14] = system: Fonsecaea pedrosi; assay: Susceptibility of clinical isolates (MIC, broth dilution); assay type: cell-based; conditions: Fonsecaea pedrosi (n = 4)
Protocol: (§3) The efficacy of compound IV″ was investigated on 563 clinical isolates of 33 human fungal pathogens. […] For species with n≧10, the MIC90 (MIC, minimal inhibitory concentration) is given as ng/ml. For species with n≦10, the MIC range is given as ng/ml. 24 h and 48 h reads are indicated (Table 1).

[15] = system: C. neoformans; assay: as above; assay type: cell-based; conditions: C. neoformans (n = 18)
Protocol: as §3

[16] = system: Phialophora verrucosa; assay: as above; assay type: cell-based; conditions: Phialophora verrucosa (n = 4)
Protocol: as §3

[17] = system: Sporothrix schenckii; assay: as above; assay type: cell-based; conditions: Sporothrix schenckii (n = 10)
Protocol: as §3

[18] = system: Fusarium solani; assay: as above; assay type: cell-based; conditions: Fusarium solani (n = 10)
Protocol: as §3

[19] = system: Zygomycetes; assay: as above; assay type: cell-based; conditions: Zygomycetes (n = 20)
Protocol: as §3

[20] = system: M. cookie; assay: In vitro antifungal activity vs. dermatophytes (MIC/MFC); assay type: cell-based; conditions: M. cookie (n = 1)
[21] = system: C. parapsilosis; assay: In vitro antifungal activity vs. yeasts (MIC/MFC); assay type: cell-based; conditions: Lodderomyces parapsilosis, C. parapsilosis (n = 2)
[22] = In vitro Mammalian Cell Cytotoxicity; assay type: cell-based; conditions: African green monkey, Vero cells
[23] = system: C. lipolytica; assay: In vitro antifungal activity vs. yeasts (MIC/MFC); assay type: cell-based; conditions: Yarrowia lipolytica, C. lipolytica (n = 1)

With `O=C([O-])CCCCCCC/C=C\C#CC#Cc1ccco1.[K+]` [Compound IV″, potassium (Z)-14-(furan-2-yl)tetradeca-9-en-11,13-diynoate] the MIC breakpoints ([1]; C. glabrata ATCC 90030, CLSI M27-A3, growth inhibition of 100%, 35° C., 24 hrs) was 60 ng/mL, the “MICs (100% inhibition)” value ([1]; C. glabrata ATCC 90030, NCCLS M27A, 35° C., 24 hrs) was 60 and the MIC ([1]; ATCC90030) was 20 ng/mL. For the same compound, the MIC ([1]; ATCC90030, read-out: minimal inhibitory concentrations) was 60 ng/mL, the MIC breakpoints ([2]; C. albicans ATCC 24433, CLSI M27-A3, growth inhibition of 100%, 35° C., 24 hrs) was 2.5 ng/mL and the “MICs (100% inhibition)” value ([2]; C. albicans ATCC 24433, NCCLS M27A, 35° C., 24 hrs) was 2.5. For the same compound, the MIC ([2]; ATCC24433, read-out: minimal inhibitory concentrations) was 2.5 ng/mL, the “interaction with Amphotericin B” value [3] was “Synergism was observed” and the inhibition of growth ([3]; 2 μg/ml and lower) was “clearly inhibits growth”. The “inhibition of growth by the combination” value ([3]; AmphothericinB/potassium salt 250/2.5 ng/ml or 125/10 ng/ml) was “clearly inhibit growth”, the inhibition of growth [4] was “clearly inhibits growth” and the inhibition of growth [5] was “clearly inhibits growth”. The “interaction with Amphotericin B” value [6] was “Synergism was observed”, the “increase of OLE1 transcript levels” value [7] was 4 fold and the MIC breakpoints ([8]; C. albicans ATCC 90028, CLSI M27-A3, growth inhibition of 100%, 35° C., 24 hrs) was 5 ng/mL. The “MICs (100% inhibition)” value ([8]; C. albicans ATCC 90028, NCCLS M27A, 35° C., 24 hrs) was 5, the MIC ([8]; ATCC90028, read-out: minimal inhibitory concentrations) was 5 ng/mL and the MIC breakpoints ([9]; C. parapsilosis ATCC 22019, CLSI M27-A3, growth inhibition of 100%, 35° C., 24 hrs) was 10240 ng/mL. For the same compound, the “MICs (100% inhibition)” value ([9]; C. parapsilosis ATCC 22019, NCCLS M27A, 35° C., 24 hrs) was 10240, the MIC ([9]; ATCC22019, read-out: minimal inhibitory concentrations) was 10200 ng/mL and the MIC breakpoints ([10]; C. tropicalis ATCC 750, CLSI M27-A3, growth inhibition of 100%, 35° C., 24 hrs) was 7.5 ng/mL. The “MICs (100% inhibition)” value ([10]; C. tropicalis ATCC 750, NCCLS M27A, 35° C., 24 hrs) was 7.5, the MIC ([10]; ATCC750) was 5 ng/mL and the MIC ([10]; ATCC750, read-out: minimal inhibitory concentrations) was 7.5 ng/mL. For the same compound, the MIC breakpoints ([11]; C. parapsilosis ATCC 90018, CLSI M27-A3, growth inhibition of 100%, 35° C., 24 hrs) was over 10240 ng/mL, the “MICs (100% inhibition)” value ([11]; C. parapsilosis ATCC 90018, NCCLS M27A, 35° C., 24 hrs) was over 10240 and the MIC ([11]; ATCC90018, read-out: minimal inhibitory concentrations) was over 10200 ng/mL. For the same compound, the MIC breakpoints ([12]; C. krusei ATCC 6258, CLSI M27-A3, growth inhibition of 100%, 35° C., 24 hrs) was 60 ng/mL, the “MICs (100% inhibition)” value ([12]; C. krusei ATCC 6258, NCCLS M27A, 35° C., 24 hrs) was 60 and the MIC ([12]; ATCC6258) was 20 ng/mL. The MIC ([12]; ATCC6258, read-out: minimal inhibitory concentrations) was 60 ng/mL, the MIC [13] was 1.25 ng/mL and the “MIC90/MIC range 48 h” value [14] was 80 to 2560 ng/mL. For the same compound, the “MIC90/MIC range 48 h” value [15] was 2000 ng/mL, the “MIC90/MIC range 48 h” value [16] was 40 to 640 ng/mL and the “MIC90/MIC range 48 h” value [17] was 32 to 5120 ng/mL. For the same compound, the “MIC90/MIC range 48 h” value [18] was over 64000 ng/mL and the “MIC90/MIC range 48 h” value [19] was 16000 ng/mL.
With `O=C(O)CCCCCCC/C=C\C#CC#Cc1ccco1` [Compound III″] the MIC ([1]; ATCC90030) was 10 ng/mL (≈ 0.0352 µM), the MIC ([2]; ATCC24433) was 1.25 ng/mL (≈ 0.0044 µM) and the MIC ([8]; ATCC90028) was 1.25 ng/mL (≈ 0.0044 µM). The MIC ([20]; 96 h, 35° C., 4 days) was 1000 ng/mL (≈ 3.52 µM), the MFC [20] was 2000 ng/mL (≈ 7.03 µM) and the “MIC90/MIC range 48 h” value ([20]; 48 h) was 1000 ng/mL (≈ 3.52 µM). For the same compound, the MIC ([9]; ATCC22019) was 2560 ng/mL (≈ 9 µM), the MIC ([10]; ATCC750) was 2.5 ng/mL (≈ 0.00879 µM) and the MFC [21] was 32000 ng/mL (≈ 113 µM). It also gave an MIC ([21]; 90% inhibition endpoint) of 4000 ng/mL (≈ 14.1 µM), an MIC ([11]; ATCC90018) of 2560 ng/mL (≈ 9 µM) and a CC50 [22] of 46000 ng/mL (≈ 162 µM). For the same compound, the MIC ([12]; ATCC6258) was 10 ng/mL (≈ 0.0352 µM), the MIC [13] was 0.5 ng/mL (≈ 0.00176 µM) and the MFC [23] was under 0.06 ng/mL. For the same compound, the MIC ([23]; 90% inhibition endpoint, read-out: MIC) was under 0.06 ng/mL.
